Biological target: Tyrosine-protein kinase BTK (Homo sapiens, UniProt Q06187)
Test: Recombinant Human BTK Inhibition Assay: The inhibition assays were performed using the generic tyrosine kinase assay kit from C is Bio (HTRF KinEASE-TK #62TK0PEB). The assay is based on the principle of fluorescence resonance energy transfer (FRET) between the Europium Cryptate labeled anti-phosphotyrosine antibody and streptavidin labeled fluorophore, XL-665. In an uninhibited kinase reaction the biotinylated peptide substrate (Tk-Biotin) gets phosphorylated at an intermediate tyrosine site which is captured by anti-phosphotyrosine antibody which eventually acts as a FRET donor. The streptavidin labeled XL-665 binds strongly to the Tk-Biotin substrate and act as a FRET acceptor. The resultant FRET signal is measured at 665 nm. A ratio of this specific fluorescence (665 nm) to the background fluorescence (620 nm), conferred by the free antibody, is directly proportional to the kinase activity. Inhibition of the kinase activity by a pharmacological intervention such as a Btk inhibitor of the present disclosure will result into decreased FRET signal.

Sequence of Tyrosine-protein kinase BTK (Q06187 whole entry): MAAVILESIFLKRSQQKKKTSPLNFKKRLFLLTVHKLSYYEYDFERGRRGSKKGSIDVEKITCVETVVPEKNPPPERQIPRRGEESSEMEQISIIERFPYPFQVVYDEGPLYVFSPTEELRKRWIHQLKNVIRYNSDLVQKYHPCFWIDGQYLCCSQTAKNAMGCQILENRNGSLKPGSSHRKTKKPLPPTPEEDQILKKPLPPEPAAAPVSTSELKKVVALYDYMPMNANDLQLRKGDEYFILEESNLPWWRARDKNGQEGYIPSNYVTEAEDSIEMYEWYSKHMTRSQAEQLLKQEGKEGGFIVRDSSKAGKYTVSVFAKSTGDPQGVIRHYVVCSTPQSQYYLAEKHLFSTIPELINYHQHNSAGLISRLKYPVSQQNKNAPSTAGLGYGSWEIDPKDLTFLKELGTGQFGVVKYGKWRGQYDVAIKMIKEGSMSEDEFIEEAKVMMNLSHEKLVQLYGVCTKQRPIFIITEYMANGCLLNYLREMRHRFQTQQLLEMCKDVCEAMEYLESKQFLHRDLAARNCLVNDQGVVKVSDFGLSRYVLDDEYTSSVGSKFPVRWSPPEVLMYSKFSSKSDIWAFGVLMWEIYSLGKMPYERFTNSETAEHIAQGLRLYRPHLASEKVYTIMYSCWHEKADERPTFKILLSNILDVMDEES

IC50: 7 nM
Compound: CCN1CC(n2cc(-c3cc4c(-c5cccc(N6CCOc7cc(C8CC8)ccc7C6=O)c5CO)ccnc4[nH]3)cn2)C1

From ChEMBL document CHEMBL3886475, “Substituted hetero-bicyclic compounds, compositions and medicinal applications thereof” (2016)
